The test system of assay [1] is MCF7. Kind of assay: Antiproliferative activity against human MCF7 cells. The format is functional, cell-based.
Assay [2] has as its system MCF7. Description: Antiproliferative activity against human MCF7 cells after 72 hrs by MTT assay. Format: functional, cell-based. As to conditions: MCF7, 72 h.
The subject of assay [3] is CHL-1. Kind of assay: Antiproliferative activity against human CHL-1 cells. Format: functional, cell-based.
In assay [4] the test system is A2780S. Kind of assay: Antiproliferative activity against human A2780S cells. Format: functional, cell-based.
The test system of assay [5] is A549. Kind of assay: Antiproliferative activity against human A549 cells. Format: functional, cell-based.
Assay [6] has as its system HepG2. Description: Antiproliferative activity against human HepG2 cells. The format is functional, cell-based.
The test system of assay [7] is SK-OV-3. Description: Antiproliferative activity against human SKOV3 cells. The format is functional, cell-based.
For assay [8], the system named is HepG2. Description: Antiproliferative activity against human HepG2 cells after 72 hrs by MTT assay. Format: functional, cell-based. The note with it: HepG2, 72 h.
In assay [9] the test system is HT-29. Description: Antiproliferative activity against human HT-29 cells. Format: functional, cell-based.
Assay [10] relates to HCT-116. Description: Antiproliferative activity against human HCT116 cells after 72 hrs by MTT assay. The format is functional, cell-based. The note with it: HCT-116, 72 h.
Assay [11] deals with MDA-MB-231. Description: Antiproliferative activity against human MDA-MB-231 cells after 72 hrs by MTT assay. The format is functional, cell-based. As to conditions: MDA-MB-231, 72 h.
The subject of assay [12] is DU-145. Description: Antiproliferative activity against human DU145 cells after 72 hrs by MTT assay. As to conditions: DU-145, 72 h. Format: functional, cell-based.
Assay [13] has as its system B16-F10. Description: Antiproliferative activity against mouse B16F10 cells after 72 hrs by MTT assay. As to conditions: B16-F10, 72 h. Format: functional, cell-based.
Assay [14] deals with HeLa. Description: Antiproliferative activity against human HeLa cells after 72 hrs by MTT assay. Format: functional, cell-based.
Assay [15] can be described thus: Antiproliferative activity against human HCT8/T cells after 72 hrs by MTT assay. The format is functional, cell-based. The note with it: HCT-8, 72 h.
Assay [16] deals with HepG2. Kind of assay: Cell cycle arrest in human HepG2 cells assessed as accumulation at G2/M phase at 0.25 uM after 24 hrs by RNase A/propidium iodide staining-based flow cytometric analysis (reference value: 21.09%). Format: functional.
Assay [17] concerns HepG2. Description: Cell cycle arrest in human HepG2 cells assessed as accumulation at S phase at 0.5 uM after 24 hrs by RNase A/propidium iodide staining-based flow cytometric analysis (reference value: 28.30%). The format is functional.
For assay [18], the system named is HepG2. Description: Cell cycle arrest in human HepG2 cells assessed as accumulation at G1 phase at 0.5 uM after 24 hrs by RNase A/propidium iodide staining-based flow cytometric analysis (reference value: 50.61%). Format: functional.
Assay [19] concerns HepG2. Kind of assay: Cell cycle arrest in human HepG2 cells assessed as accumulation at G2/M phase after 24 hrs by RNase A/propidium iodide staining-based flow cytometric analysis. Format: functional.
Assay [20] relates to HepG2. Description: Cell cycle arrest in human HepG2 cells assessed as accumulation at G1 phase at 0.25 uM after 24 hrs by RNase A/propidium iodide staining-based flow cytometric analysis (reference value: 50.61%). The format is functional.
For assay [21], the species on record is Sus scrofa. Kind of assay: (§1) Inhibition of tubulin polymerization in porcine brain assessed as disruption of tubulin assembly by spectrophotometric analysis.
Assay [22] can be described thus: as §1. Details: species or system Sus scrofa.
Assay [23] relates to HepG2. Kind of assay: Cell cycle arrest in human HepG2 cells assessed as accumulation at S phase at 0.25 uM after 24 hrs by RNase A/propidium iodide staining-based flow cytometric analysis (reference value: 28.30%). The format is functional.
In assay [24] the test system is HepG2. Description: Cell cycle arrest in human HepG2 cells assessed as accumulation at G2/M phase at 0.5 uM after 24 hrs by RNase A/propidium iodide staining-based flow cytometric analysis (reference value: 21.09%). Format: functional.

Some results are limits rather than exact numbers.

In the case of `COc1ccc(N/C=C(\C#N)C(=O)c2cc(OC)c(OC)c(OC)c2)cc1`, the half-inhibitory concentration (IC50) in assay [1] came to 1.84 µM; in assay [2] it was 1.93 µM; in assay [3], 1.22 µM; in [4] it was 1.88 µM; in assay [5] it was 2.09 µM; in assay [6], 1.2 µM. Also, the IC50 in [7] worked out at 1.27 µM; in [8], 1.38 µM; in assay [9] it was 1.28 µM.

`CCOc1ccc(N/N=C(\C#N)C(=O)c2cc(OC)c(OC)c(OC)c2)cc1`: the IC50 in assay [2] is 7.01 µM; in assay [8] it was 6.62 µM.

As for `COc1cc(C(=O)/C(C#N)=N/Nc2cccc(C)c2)cc(OC)c1OC`, the IC50 amounted to 5.89 µM in assay [2] and 6.11 µM in assay [8].

As for `COc1cc(N/N=C(\C#N)C(=O)c2cc(OC)c(OC)c(OC)c2)cc(OC)c1OC`, the IC50 in [2] and in assay [8] was more than 10 µM in each case.

Turning to `COc1cc(C(=O)/C(C#N)=N/Nc2ccccc2F)cc(OC)c1OC`, the IC50 in assay [2] came to 1.69 µM; in assay [8], 2.1 µM.

For `COc1cc2c(c(OC)c1OC)-c1ccc(OC)c(=O)cc1[C@@H](NC(C)=O)CC2` [COLCHICINE], the concentration for half-maximal inhibition (IC50) in [10] was found to be 0.0262 µM; in [11], 0.0776 µM; in assay [12], 0.00345 µM; in [13], 0.0442 µM; in assay [14], 0.00889 µM; in [15], 0.227 µM.

Take `COc1cc(C(=O)/C(C#N)=N/Nc2ccc(C(F)(F)F)cc2)cc(OC)c1OC`: the IC50 in assay [2] was found to be 3.02 µM; in assay [8], 2.68 µM.

With `COc1cc(C(=O)/C(C#N)=N/Nc2ccccc2)cc(OC)c1OC`, the concentration for half-maximal inhibition (IC50) in [2] was 6.38 µM; in [8], 5.19 µM.

As for `COc1ccc(N/N=C(\C#N)C(=O)c2cc(OC)c(OC)c(OC)c2)cc1O`, the Activity in [16] is 78.89%; in assay [17] it was 5.43%; in [18] it was 0.45%; in assay [19] it was “Dose-dependent effect”; in assay [20] it was 4.09%; in assay [23], 17.01%. In [24], the Activity is listed as 94.12%. Moreover, the IC50 in assay [10] is 0.81 µM; in assay [2] it was 0.26 µM; in assay [11] it was 0.72 µM; in assay [12], 0.077 µM; in [13], 2.11 µM; in [14], 0.081 µM. The results for the half-inhibitory concentration (IC50) in assay [8], in assay [22] and in [15] were 0.32 µM, 0.9 µM and 3.96 µM, respectively. Moreover, the inhibition entry in assay [21] was “Dose-dependent effect”.

For `CCOc1ccccc1N/N=C(\C#N)C(=O)c1cc(OC)c(OC)c(OC)c1`, the half-maximal inhibitory concentration (IC50) in assay [2] and in assay [8] was more than 10 µM throughout.

Consider `COc1cc(C(=O)/C(C#N)=N/Nc2ccc([N+](=O)[O-])cc2)cc(OC)c1OC`, for which the half-inhibitory concentration (IC50) in assay [2] and in assay [8] was more than 10 µM in each case.

On to `COc1ccc(N/N=C(\C#N)C(=O)c2cc(OC)c(OC)c(OC)c2)cc1`, for which the half-inhibitory concentration (IC50) in [10] was 3.19 µM; in [2], 0.28 µM; in assay [11], 2.46 µM; in assay [12], 0.12 µM; in assay [13], 3.26 µM; in [14] it was 0.22 µM. The concentration for half-maximal inhibition (IC50) came out at 0.44 µM in [8] and 4.62 µM in assay [15].

As for `COc1cc(C(=O)/C(C#N)=N/Nc2ccc(F)cc2)cc(OC)c1OC`, the figures for the IC50 in assay [2] and in assay [8] were 9.84 µM and 9.71 µM, respectively.

Regarding `COc1cc(C(=O)/C(C#N)=N/Nc2ccc(Cl)cc2Cl)cc(OC)c1OC`, the IC50 in assay [2] and in assay [8] was more than 10 µM each time.

Consider `COc1cccc(N/N=C(\C#N)C(=O)c2cc(OC)c(OC)c(OC)c2)c1`, for which the results for the IC50 in assay [2] and in [8] were 8.82 µM and 6.46 µM, respectively.

On to `COc1cc(C(=O)/C(C#N)=N/Nc2ccc(C)cc2)cc(OC)c1OC`, for which the IC50 in assay [10] was determined as 0.87 µM; in assay [2] it was 0.43 µM; in [11], 2.24 µM; in assay [12] it was 0.098 µM; in assay [13], 2.23 µM; in assay [14], 0.31 µM. In addition, the half-maximal inhibitory concentration (IC50) in assay [8] was 0.61 µM; in assay [15], 7.64 µM.

The record behind these values is ChEMBL document CHEMBL4265910, “(E)-N-Aryl-2-oxo-2-(3,4,5-trimethoxyphenyl)acetohydrazonoyl cyanides as tubulin polymerization inhibitors: Structure-based bioisosterism design, synthesis, biological evaluation, molecular docking and in silico ADME prediction” (Bioorg Med Chem Lett, 2018).
